Results: patent US6399542B1, “Alkoxyimino-substituted bicyclic compounds compositions containing the same and method of making such compounds” (Agro-Kanesho Co., Ltd., priority 1997, dated 2002)
Where two headings read alike, the source gives them in different places.

Tests used:
Chochliobolus miyabeanus = assay: Effect on Rice brown spot (preventive spray test); type: in vivo; conditions: 7 days after inoculation
Aphis gossypii = assay: Effect on Aphis gossypii (cucumber seedling spray); conditions: Test Example 15
Description: 5 or 6 imagoes of Aphis gossypii were released on a cucumber seedling of 1- or 2-leaf stage in a pot. Two days after, the larvae were confirmed and the imagoes were removed. Then 500 ppm or 50 ppm of a compound of the present invention in the form of an emulsion diluted with water was sprayed on the cucumber seedling. After air-drying, the leaves were cut and put in a plastic vessel having a size of 9 cm (inner diameter)×6.5 cm (depth). The lid was put on the vessel, which was then left in a room kept at 26° C. for 48 hours and then the numbers of the living imagoes and dead ones were counted, and the rate of dead imagoes was calculated (repetition: twice).

Tetranychus kanzawai = assay: Effect on Tetranychus kanzawai (green bean leaf spray); conditions: Test Example 11
Description: A piece (3 cm×5 cm) of green bean leaf was placed with the backside up, on a filter paper wet with water so as to prevent the leaf from drying, and inoculated with 10 female imagoes of Tetranychus kanzawai per a leaf. 24 hours after the inoculation, 500 ppm of a compound of the present invention in the form of an emulsion diluted with water was sprayed thereon. After air-drying, the piece was left to stand in a room kept at 26° C. for 24 hours and then the numbers of the living imagoes and dead ones were counted, and the rate of dead imagoes was calculated (repetition: twice).

Rhizoctonia solani = assay: Effect on Rice sheath blight (preventive spray test); conditions: 10 days after inoculation
Description: An emulsion of a compound of the present invention prepared in Preparation Example 2 was diluted with water and uniformly sprayed on 5 rice plant seedlings (variety: Koshihikari) in 4.5-leaf stage in each plastic pot having a diameter of 6 cm, with a spray gun. One day after the spraying, the seedlings were bundled at the second sheath with a string. Colonies of Rhizoctonia solani previously cultured in PSA culture medium were bored with a cork borer to obtain pieces having a diameter of 4 mm. The piece was put in the bundle, and kept in a high-humidity room at 25° C. until the examination. Ten days after the inoculation, the degree of the disease was examined, and the preventive rate (effect of inhibiting the disease) was calculated on the basis of the following standard:
Preventive rate=[1-D′/C′]×100
C′: Severity in untreated section
D′: Severity in treated section.

[1] = test system: Psecidoperonospora cubensis; assay: Effect on Cucumber downy mildew (preventive spray test); type: in vivo; conditions: 7 days after inoculation
Nephotettix cincticeps = assay: Effect on Nephotettix cincticeps (rice seedling immersion); conditions: Test Example 14
Description: Rice plant seedlings were immersed in 500 ppm or 50 ppm of a compound of the present invention in the form of an emulsion diluted with water for 10 seconds. After air-drying, the root of each seedling was covered with a wet absorbent cotton and the seedling was put in a test tube. Ten larvae of Nephotettix cincticeps of the second instar were put therein. The opening of the test tube was covered with a gauze, and the test tube was then left in a room kept at 26° C. for 48 hours and then the numbers of the living imagoes and dead ones were counted, and the rate of dead imagoes was calculated (repetition: twice).

Spodoptera litura = assay: Effect on Spodoptera litura (chinese cabbage leaf spray); conditions: Test Example 12
Description: 500 ppm of a compound of the present invention in the form of an emulsion diluted with water was sprayed on a leaf of chinese cabbage seedling in 3- to 4-leaf stage. After air-drying, the leaf was placed in a plastic vessel having a size of 21 cm(length)×13 cm(width)×3 cm (depth). Ten larvae of Spodoptera litura of the third instar were put therein. The lid was put on the vessel, which was then left in a room kept at 26° C. for 48 hours and then the numbers of the living imagoes and dead ones were counted, and the rate of dead imagoes was calculated (repetition: twice).

[2] = test system: Pseudoperonospora cubenis; assay: Penetration and translocation in cucumber leaf (drop on back of leaf, downy mildew); type: in vivo; design: key: 3: At least 40% of the area of the leaf was free from the disease.; 20 to 40% of the area of the leaf was free from the disease.; 1: An area larger than the spot of the drop but smaller than 20% of the area of the leaf was free from the disease.; 0: Only the spot of the drop was free from the disease; conditions: 10 μl drop on back of leaf, conc. of active ingredient 200 ppm, disease-free area 5 days after the spraying
Description: Four points were marked at random on the first leaf of each cucumber seedling (variety: Shogoin aonaga fushinari) in two-leaf stage in each pot having a diameter of 6 cm. […] The leaf was kept in a greenhouse for one day and then uniformly inoculated with a zoospore suspension of Pseudoperonospora cubenis by means of a spray gun, then left to stand in a high-humidity room at 24° C. for 24 hours, and kept in a greenhouse. The area of the disease-free part 5 days after the spraying was represented in terms of the index.
3: At least 40% of the area of the leaf was free from the disease.
2: 20 to 40% of the area of the leaf was free from the disease.
1: An area larger than the spot of the drop but smaller than 20% of the area of the leaf was free from the disease.
0: Only the spot of the drop was free from the disease.

Phytophthora infestans = type: in vivo; conditions: Tomato late blight, 5 days after inoculation
Puccinia recondite = assay: Penetration and translocation in wheat leaves (covered leaf tip, brown rust); type: in vivo; conditions: conc. of active ingredient 200 ppm
Pyricularia oryzae = type: in vivo; conditions: Rice blast, 7 days after inoculation
Botrytis cinerea = assay: Effect on Cucumber gray mold (cotyledon paper disc test); type: in vivo; conditions: 3 days after inoculation
Erysiphe graminis = assay: Effects on Barley powdery mildew (preventive spray test); type: in vivo; conditions: lesions counted seven days after inoculation
Plutella xylostella = assay: Effect on Plutella xylostella (Chinese cabbage leaf spray); conditions: Test Example 13
Description: 500 ppm or 50 ppm of a compound of the present invention in the form of an emulsion diluted with water was sprayed on a leaf of Chinese cabbage seedling in 3- to 4-leaf stage. After air-drying, the leaf was placed in a plastic vessel having a size of 9 cm (inner diameter)×6.5 cm (depth). Ten larvae of Plutella xylostella of the third instar were put therein. The lid was put on the vessel, which was then left in a room kept at 26° C. for 48 hours and then the numbers of the living imagoes and dead ones were counted, and the rate of dead imagoes was calculated (repetition: twice).

Puccinia recondita = assay: Effect on Wheat brown rust (preventive spray test); type: in vivo; conditions: 7 days after inoculation
[3] = conc. of active ingredient 20 ppm
[4] = conc. of active ingredient 100 ppm

Row | Compound | Preventive rate (%) (Chochliobolus miyabeanus; [3]) | Preventive rate (%) (Chochliobolus miyabeanus; [4]) | effect of controlling insect pests (Aphis gossypii) | effect of controlling insect pests (Tetranychus kanzawai) | Preventive rate (%) (Rhizoctonia solani; [3]) | Preventive rate (%) (Rhizoctonia solani; [4]) | Preventive rate (%) [1, 3] [%] | Preventive rate (%) [1, 4] [%] | effect of controlling insect pests (Nephotettix cincticeps) | effect of controlling insect pests (Spodoptera litura) | Preventive rate (%) (Phytophthora infestans; [3]) | Preventive rate (%) (Phytophthora infestans; [4]) | Preventive rate (%) (Pyricularia oryzae; [3]) | Preventive rate (%) (Pyricularia oryzae; [4]) | Preventive rate (%) (Botrytis cinerea; [3]) | Preventive rate (%) (Botrytis cinerea; [4]) | Preventive rate (%) (Erysiphe graminis; [3]) | Preventive rate (%) (Erysiphe graminis; [4]) | effect of controlling insect pests (Plutella xylostella) | Preventive rate (%) (Puccinia recondita; [3]) | further results
1 | CNC(=O)/C(=N/OC)c1ccccc1COc1ccc2c(c1)CCC2 [comparative compound (1), 2-methoxyimino-2-[2-(indane-5-yloxymethyl)-phenyl]-acetic acid methylamide, reference compound] | 0 | 64 | did not exhibit the effect of controlling insect pests | did not exhibit the effect of controlling insect pests | 0 | 24 | 30 | 81 | did not exhibit the effect of controlling insect pests | did not exhibit the effect of controlling insect pests | 63 | 94 | 48 | 63 | 25 | 44 | 17 | 99 | did not exhibit the effect of controlling insect pests | 86 | Index [2]: 0; Number of lesions formed within the mark to the tip (Puccinia recondite): 48; Preventive rate (%) (Puccinia recondite): 23%; Rate of the translocation perfect preventive conc. (%) (Puccinia recondite): 4.4%; Preventive rate (%) (Puccinia recondita; [4]): 99%
2 | CO/N=C(\C(=O)OC)c1ccccc1COc1ccc2c(c1)CCCC2 [comparative compound (2), 2-methoxyimino-2-[2-(5,6,7,8-tetrahydronaphthalene-2-yloxymethyl)phenyl]-methylacetate, reference compound] | 20 | 85 | did not exhibit the effect of controlling insect pests | did not exhibit the effect of controlling insect pests | 0 | 0 | 70 | 93 | did not exhibit the effect of controlling insect pests | did not exhibit the effect of controlling insect pests | 38 | 100 | 49 | 55 | 11 | 21 | 59 | 100 | did not exhibit the effect of controlling insect pests | 70 | Preventive rate (%) (Puccinia recondita; [4]): 100%
